For assay [1], the system named is Brevibacterium monooxygenase 2 (ORF 2.4). The assay can be described thus: Spectrophotometric monooxygenase assay (NADPH oxidation at 340 nm), substrate specificity for cyclic ketones, monooxygenase 2. Type of assay: biochemical, Brevibacterium sp HCU. The settings on record: NADPH 0.3 mM, pH7, 30° C., activities below 2.0 could reflect contaminants. On the procedure: (§1) The cyclohexanone monooxygenase activity of each overexpressed enzyme was assayed spectrophotometrically at 340 nm by monitoring the oxidation of NADPH. In a spectrophotometer cuvette containing 50 mM Tris-HCl, 50 mM K Acetate pH7 at 30° C. NADPH 0.3 mM and 20-50 μg of homogenous monooxygenase the reaction was initiated by the addition of 1 mM of cyclohexanone. Substrate specificity of each enzyme was tested with other cyclic ketones added at 0.1 or 0.5 mM.
(§2) Expression of the His6-tagged proteins was done by growing the cells carrying the expression plasmids in 1 l of Luria-Bertani broth (Miller 1972) containing Ampicillin (100 μg/ml) and tetracyclin (10 μg/ml) at 28° C. Riboflavin (1 μg/ml) was also added to the medium since both monooxygenases are flavoproteins. When the absortion reached 0.5 at 600 nm, 1 mM isopropy-thio-b-galactoside (IPTG) was added to the culture. Cells were harvested 1.5 hr later, resuspended in 2 ml of 300 mM NaCl 5% glycerol 20 mM Tris-HCl pH 8.0 (Buffer A) containing 10 mM EDTA and 100 μg lysozyme and disrupted by three freeze/thaw cycles. Nucleic acids were digested by addition of MgCl2 (20 mM) RNAseA and DNAse I (10 μg each). The particulate fraction was removed by centrifugation at 14,000 RPM and the supernatant was mixed for 1 hr at 4° C. with 100 μl of a metal chelation agarose (Ni-NTA Superflow Qiagen, Valencia, Calif.) saturated with Ni(II) and equilibrated Buffer A containing 5 mM imidazole. The resin was washed bathchwise with 10 ml each of Buffer A containing 5, 10, 15, 20, 40, 80, 150 and 300 mM respectively. The bound proteins were eluted between 80 and 150 mM imidazole. Eluted proteins were concentrated by ultrafiltration with a Centricon device (cut off 10,000 Da, Amicon) and the buffer replaced by Buffer A. Homogeneity of the overexpressed proteins is shown in FIG. 3, which show a gel electrophoresis separation of proteins from control E. coli (lane 1), E. coli expressing ORF 1.3 (lane 2) and E. coli expressing ORF 2.4 (lane 3).
(§3) Each monooxygenase oxidized cyclohexanone as measured spectrophoto-metrically by monitoring the oxidation of NADPH at 340 nm. No activity was observed when NADPH was replaced by NADH. The product of the cyclohexanone oxidation was confirmed to be caprolactone by GC-MS analysis. Monooxygenase 1 and 2 have different substrate specificity relative to the number of carbon atoms, the oxidation or the substitution of the ring.

In assay [2] the test system is Brevibacterium monooxygenase 1 (ORF 1.3). Briefly: Spectrophotometric monooxygenase assay (NADPH oxidation at 340 nm), substrate specificity for cyclic ketones, monooxygenase 1. The note with it: NADPH 0.3 mM, pH7, 30° C., activities below 2.0 could reflect contaminants. Type of assay: biochemical, Brevibacterium sp HCU. On the procedure:
as §1, §2, §3

The test system of assay [3] is E. coli strains carrying plasmids pPCB1 and pPCB2 that express the monooxygenase ORF 1.3 and ORF 2.4. Briefly: Conversion of cyclohexanone into caprolactone by cell suspensions, GC-MS. The note with it: 100 ppm cyclohexanone, M9 medium with 0.2% glucose, IPTG-induced cells (FIG. 5). It counts as cell-based. The protocol: Confirmation of the oxidation of cyclohexanone into caprolactone was determined by GC-Mass Spectrometry on a HP 5890 Gas Chromatograph with HP 5971 mass selective detector equipped with a HP-1 capillary column (Hewlett Packard). Prior to analysis, samples were acidified to pH 3 by HCl, extracted by dichloromethane three times, dried with MgSO4 and filtered.
Twenty ml cultures of E. coli strains carrying plasmids pPCB1 and pPCB2 that express the monooxygenase ORF 1.3 and ORF 2.4 respectively were grown at 30° C. in LB medium containing Ampicillin (100 μg/ml) and tetracyclin (10 μg/ml). When the absorbance reached 0.1 at 600 nm, 1 mM IPTG was added to the culture to induce the monooxygenases. After 1 hr, the cultures were chilled and washed twice with M9 mineral medium (Sambrook, J., Fritsch, E. F. and Maniatis, T. Molecular Cloning: A Laboratory Manual, Second Edition, Cold Spring Harbor Laboratory Press, Cold Spring Harbor (1989)) and resuspended in 2 ml of the same medium containing 0.2% glucose and 100 ppm of cyclohexanone. After one hr the cells were removed from the culture by centrifugation and supernatant was analyzed by GC-MS as described in the General Methods. The GC-MS analysis indicated the disappearance of cyclohexanone and the appearance of caprolactone. […]

Regarding `O=C1CCCCC1=O` [1,2-cyclohexanedione], the “Mono 2 rate” value in assay [1] (substrate 0.1 mM) turned out to be 7.6 min⁻¹; in assay [1] (substrate 0.5 mM), 34 min⁻¹. Besides, the “Mono 1 rate” value stood at 9 min⁻¹ in assay [2] (substrate 0.1 mM) and 52 min⁻¹ in assay [2] (substrate 0.5 mM).
The matching figures for `O=C1CCCC(=O)C1` [1,3-cyclohexanedione]: 18 min⁻¹, 60 min⁻¹, 0.3 min⁻¹ and 1.2 min⁻¹.
`O=C1CCC(=O)CC1` [1,4-cyclohexanedione]: the “Mono 2 rate” value is 53 min⁻¹ in assay [1] (substrate 0.1 mM) and 88 min⁻¹ in assay [1] (substrate 0.5 mM). The “Mono 1 rate” value in assay [2] (substrate 0.1 mM) came to 130 min⁻¹; in assay [2] (substrate 0.5 mM), 210 min⁻¹.
In the case of `O=C1CCCCC1C1=CCCCC1` (centres unmarked) [2-(cyclohex-1-enyl)cyclohexanone], the “Mono 2 rate” value in assay [1] (substrate 0.5 mM) worked out at 2.4 min⁻¹. For the same compound, the “Mono 1 rate” value in assay [2] (substrate 0.1 mM) was 160 min⁻¹; in assay [2] (substrate 0.5 mM), 260 min⁻¹.
As for `CC1CCCCC1=O` (centres unmarked) [2-methylcyclohexanone], the figures for the “Mono 2 rate” value in assay [1] (substrate 0.1 mM) and in assay [1] (substrate 0.5 mM) were 37 min⁻¹ and 97 min⁻¹, respectively. Besides, the “Mono 1 rate” value in assay [2] (substrate 0.1 mM) came out at 250 min⁻¹; in assay [2] (substrate 0.5 mM) it was 260 min⁻¹.
Regarding `CC1CCCC1=O` (centres unmarked) [2-methylcyclopentanone], the “Mono 2 rate” value stood at 120 min⁻¹ in assay [1] (substrate 0.1 mM) and 110 min⁻¹ in assay [1] (substrate 0.5 mM). Moreover, the “Mono 1 rate” value in assay [2] (substrate 0.1 mM) stood at 40 min⁻¹; in assay [2] (substrate 0.5 mM), 110 min⁻¹.
Consider `O=C1CCC1` [cyclobutanone], for which the “Mono 2 rate” value came to 92 min⁻¹ in assay [1] (substrate 0.1 mM) and 96 min⁻¹ in assay [1] (substrate 0.5 mM). Further, the “Mono 1 rate” value in assay [2] (substrate 0.1 mM) was 235 min⁻¹; in assay [2] (substrate 0.5 mM) it was 171 min⁻¹.
With `O=C1CCCCCCCCC1` [cyclodecanone], the “Mono 2 rate” value in assay [1] (substrate 0.1 mM) was 1.8 min⁻¹; in assay [1] (substrate 0.5 mM), 1.2 min⁻¹. For the same compound, in assay [2] (substrate 0.5 mM), the “Mono 1 rate” value stood at 1 min⁻¹.
Consider `O=C1CCCCCCCCCCC1` [cyclododecanone], for which the “Mono 2 rate” value is 1.2 min⁻¹ in assay [1] (substrate 0.1 mM) and 1.8 min⁻¹ in assay [1] (substrate 0.5 mM). In addition, the entries for the “Mono 1 rate” value in assay [2] (substrate 0.1 mM) and in assay [2] (substrate 0.5 mM) were 1 min⁻¹ and 0.9 min⁻¹, respectively.
The matching figures for `O=C1CCCCCC1` [cycloheptanone]: 3.9 min⁻¹, 8.6 min⁻¹, 4.5 min⁻¹ and 18 min⁻¹.
The matching figures for `O=C1C=CCCC1` [cyclohex-2-ene-1-one]: 64 min⁻¹, 80 min⁻¹, 2.3 min⁻¹ and 1.9 min⁻¹.
Turning to `O=C1CCCCC1` [cyclohexanone], the “Mono 2 rate” value in assay [1] (substrate 0.1 mM) and in assay [1] (substrate 0.5 mM) was 100 min⁻¹ each time. In addition, in assay [3], the “time until all cyclohexanone was oxidized” value is reported as “about 75 min”. Also, the “Mono 1 rate” value in assay [2] (substrate 0.1 mM) was 160 min⁻¹; in assay [2] (substrate 0.5 mM), 290 min⁻¹.
Consider `O=C1CCCCCCC1` [cyclooctanone], for which the “Mono 2 rate” value in assay [1] (substrate 0.1 mM) and in assay [1] (substrate 0.5 mM) was 1.3 min⁻¹ throughout. Besides, the “Mono 1 rate” value in assay [2] (substrate 0.1 mM) stood at 0.9 min⁻¹; in assay [2] (substrate 0.5 mM), 0.4 min⁻¹.
Take `O=C1CCCC1` [cyclopentanone]: the entries for the “Mono 2 rate” value in assay [1] (substrate 0.1 mM) and in assay [1] (substrate 0.5 mM) were 90 min⁻¹ and 120 min⁻¹, respectively. Further, the “Mono 1 rate” value in assay [2] (substrate 0.1 mM) is 1.2 min⁻¹; in assay [2] (substrate 0.5 mM) it was 7.0 min⁻¹.
For `O=C1CCCCCCCCCC1` [cycloundecanone], the “Mono 2 rate” value in assay [1] (substrate 0.1 mM) is 0.6 min⁻¹; in assay [1] (substrate 0.5 mM), 0.9 min⁻¹. For the same compound, the “Mono 1 rate” value was 1.2 min⁻¹ in assay [2] (substrate 0.1 mM) and 1.4 min⁻¹ in assay [2] (substrate 0.5 mM).

(Values after patent US6790645B2, “Oxidation of a cyclohexanone derivative using a brevibacterium cyclohexanone monooxygenase” (E. I. du Pont de Nemours and Company, priority 1999, dated 2004).)
